# In article PMC8654833 (Scientific Reports, 2021):
# Several values for one entry are separate records, joined by “and”; a condition that tells them apart may be missing. Identical values can stand only once.
# Assays:
# DAT = molecular target: T1, DAT (Homo sapiens, UniProt Q01959); assay: Radioligand binding competition dose-response (Euroscreen), dopamine transporter
# T1 construct: Euroscreen FAST (contract assay)
# Description: (§1) This study included binding assays (87 GPCR targets), measured as % of binding inhibition of a reference radioligand, as well as uptake and enzyme assays (19 targets), the latter measured as % inhibition of control enzyme activity. […] It was performed by radioligand binding competition by Euroscreen (Euroscreen FAST, Belgium). The following nanomolar concentrations were tested in duplicate: 0.001, 0.01, 0.1, 1, 10, 100, 1000, 10,000. Dose–response curves were fitted with the least squares method. IC50 results are shown as pIC50, corresponding to the negative log10 of IC50 in molar.
# 5-HT5A = molecular target: T2, 5-HT5A (Homo sapiens, UniProt P47898); assay: Single-concentration radioligand binding screen (Eurofins Cerep), 5-HT5A; details: single concentration 10 µM screen, [3H]LSD
# T2 construct: Euroscreen FAST (contract assay)
# T2 sequence (P47898 whole entry, species assumed): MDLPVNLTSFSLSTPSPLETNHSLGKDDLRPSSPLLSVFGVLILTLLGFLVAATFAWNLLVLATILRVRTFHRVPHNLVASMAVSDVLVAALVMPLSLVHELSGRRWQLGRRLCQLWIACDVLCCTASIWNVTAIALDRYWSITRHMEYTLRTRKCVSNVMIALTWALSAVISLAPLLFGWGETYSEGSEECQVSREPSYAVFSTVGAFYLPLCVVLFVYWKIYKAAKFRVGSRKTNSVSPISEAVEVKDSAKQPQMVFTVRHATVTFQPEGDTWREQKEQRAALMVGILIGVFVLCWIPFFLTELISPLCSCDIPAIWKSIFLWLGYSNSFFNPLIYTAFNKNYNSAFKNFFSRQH
# Description: as §1
# 5-HT2C [1] = molecular target: T3, 5-HT2C (Homo sapiens, UniProt P28335); assay: Single-concentration radioligand binding screen (Eurofins Cerep), 5-HT2C; details: single concentration 10 µM screen, [3H]mesulergine
# T3 construct: Euroscreen FAST (contract assay)
# T3 sequence (P28335 33-458): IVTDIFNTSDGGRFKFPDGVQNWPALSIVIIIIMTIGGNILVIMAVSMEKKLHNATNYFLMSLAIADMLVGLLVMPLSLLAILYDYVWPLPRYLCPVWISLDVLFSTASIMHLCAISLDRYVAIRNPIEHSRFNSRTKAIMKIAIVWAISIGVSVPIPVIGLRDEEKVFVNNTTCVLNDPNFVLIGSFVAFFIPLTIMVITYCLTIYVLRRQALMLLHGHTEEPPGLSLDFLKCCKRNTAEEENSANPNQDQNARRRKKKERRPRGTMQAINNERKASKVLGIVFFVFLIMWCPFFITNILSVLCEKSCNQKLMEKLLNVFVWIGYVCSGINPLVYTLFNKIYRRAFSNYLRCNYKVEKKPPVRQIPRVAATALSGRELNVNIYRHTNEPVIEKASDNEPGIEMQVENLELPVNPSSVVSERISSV
# Description: as §1
# [2] = Plasma and brain distribution after single IP injection; details: CD-1, mouse, 10 mg/kg
# Ca^2+ channel, ds = assay: Radioligand binding competition dose-response (Euroscreen), Ca2+ channel diltiazem site
# Description: as §1
# Ca^2+ channel, vs = assay: Single-concentration radioligand binding screen (Eurofins Cerep), Ca2+ channel verapamil site; details: single concentration 10 µM screen, [3H]D888
# Description: as §1
# 5-HT2B = 5-HT2B (Homo sapiens, UniProt P41595); assay: biochemical; details: read-out: %Binding inhibition at 10 µM, dose-response study, maximal concentration 10 µM, [3H]mesulergine
# Chain of 5-HT2B (P41595 whole entry, species assumed): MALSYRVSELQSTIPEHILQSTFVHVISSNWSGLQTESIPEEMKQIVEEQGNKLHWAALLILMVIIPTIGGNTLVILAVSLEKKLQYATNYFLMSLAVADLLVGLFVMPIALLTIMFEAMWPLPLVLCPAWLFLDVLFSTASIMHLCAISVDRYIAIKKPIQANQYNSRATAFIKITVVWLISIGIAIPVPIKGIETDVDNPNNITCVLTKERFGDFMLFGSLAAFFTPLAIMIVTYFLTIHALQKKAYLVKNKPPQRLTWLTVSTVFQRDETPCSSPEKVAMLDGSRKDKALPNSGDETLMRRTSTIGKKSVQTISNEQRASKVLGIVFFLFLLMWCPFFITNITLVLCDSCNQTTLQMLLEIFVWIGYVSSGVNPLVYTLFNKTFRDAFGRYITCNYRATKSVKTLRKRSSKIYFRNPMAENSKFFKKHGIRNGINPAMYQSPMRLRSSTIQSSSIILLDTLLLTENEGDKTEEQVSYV
# 5-HT2C [3] = molecular target: T3, 5-HT2C; assay: Radioligand binding competition dose-response (Euroscreen), 5-HT2C
# Description: as §1
# Sod1^G86R mice = assay: Body weight, grip strength, onset and survival follow-up in ALS mouse model; format: in vivo; details: for median survival: p > 0.05 vs vehicle (109 days)
# From the text: Osmotic mini-pumps were collected at endstage, and mini-pump emptying was systematically checked. After mini-pump implantation, mice were longitudinally followed for body weight, grip strength and survival.
# To this aim, we measured mitral valve thickness using histology (Fig. 3).
# Sod1^G86R mice on FVB/N background were produced by rapid lineage extension at Charles River facility, France. The resulting animals were F1 hybrid FVB/NRj and FVB/NCrl. During experimentation, mice were housed at the animal facility of the Faculty of Medicine of the University of Strasbourg, in a conventional sanitary status. […] We included both females and males in equal proportions. […] Mice were sacrificed at end-stage by lethal intraperitoneal injection of pentobarbital (Doléthal 120 mg/kg, Vetoquinol, France). Spinal cord, brain and blood samples were then collected. All animal care and procedures were in accordance with institutional guidelines and European regulations.
# Mice were visually monitored daily for any potential ethical issue. Body weight and muscular strength were monitored twice a week. Muscular strength was assessed using a gripmeter test (ALG01, Bioseb, France). Results are the mean of three successive measures and were normalized by body weight. Onset of the pathology was calculated as the time between birth and peak of body weight. Duration of the disease is the time between onset and death of the mouse. End-stage was defined as the inability of the animal to turn around after 3 s placed on the back, and subsequent euthanasia followed. Muscular strength and weight loss are presented as percent loss from disease onset. […] Survival is presented as Kaplan–Meier curves.
# [4] = system: microglia and motor neurons in the ventral spinal cord; assay: Iba1 and ChAT immunostaining of lumbar spinal cord; format: in vivo; details: Sod1^G86R mice
# Description: We then sought to characterize whether BW modulated microglial physiology and used RT-qPCR to measure microglia related genes in the cervical and thoracic spinal cord of animals treated with either vehicle or 3 mg/kg/d of BW. […] We next wanted to see if these changes in gene expression were accompanied by modification of microglial activation in spinal cord of treated mice. Iba1 + cells were classified in 4 different activation states (resting, activated, phagocytic or dystrophic).
# Lumbar spinal cord was dissected and cryopreserved before OCT inclusion. Samples were cut with a cryostat (Leica CM30505) at 20 µm of thickness. Iba1 (1:100, Sigma cat#SAB2702364, RRID: AB_2820253) and ChaT (1:100, Millipore cat#AB144P) immunostainings were performed using DAB peroxidase technique to assess microglial integrity and motor neuron degeneration. Images were acquired using a Leica DM750 microscope at × 10 magnification. Cells were counted in the ventral horn in a standardized zone with n = 4–10 images per animal, and subsequently classified using FIJI software (RRID: SCR_002285)[23],[24].
# mitral valve = assay: Mitral valve thickness by histology (hematoxylin/eosin); format: in vivo; details: Sod1^G86R mice, 3 mg/kg/d; vehicle 57.7 µm
# Description: To this aim, we measured mitral valve thickness using histology (Fig. 3). […] The lack of beneficial effect of BW on survival and motor function is not due to the developpement of valvulopathy nor cardiac failure. Thus, BW is not protective in Sod1^G86R mice independently of any potential cardiotoxicity.
# After dissection and rinse with PBS 1X, hearts were fixed for 72 h in formaldehyde 4% solution. After paraffin inclusion, cuts of 4 µm thickness were made. Hematoxylin/eosin staining was performed on these cuts. Inclusion and staining were performed by the department of histopathology and embyology of the mouse clinical institute (ICS, Illkirch-Graffenstaden). Valve imaging was performed with a Leica DFC425C camera mounted on a microscope Leica DM750, at × 10 magnification (cat# 506228, 10x/0.25 HI PLAN ∞/−), with LAS V4.8 software (Leica Microsystems). […] Average thickness was determined by rapporting the area on the length of the leaflet.
# T1 sequence (Q01959 whole entry, species assumed): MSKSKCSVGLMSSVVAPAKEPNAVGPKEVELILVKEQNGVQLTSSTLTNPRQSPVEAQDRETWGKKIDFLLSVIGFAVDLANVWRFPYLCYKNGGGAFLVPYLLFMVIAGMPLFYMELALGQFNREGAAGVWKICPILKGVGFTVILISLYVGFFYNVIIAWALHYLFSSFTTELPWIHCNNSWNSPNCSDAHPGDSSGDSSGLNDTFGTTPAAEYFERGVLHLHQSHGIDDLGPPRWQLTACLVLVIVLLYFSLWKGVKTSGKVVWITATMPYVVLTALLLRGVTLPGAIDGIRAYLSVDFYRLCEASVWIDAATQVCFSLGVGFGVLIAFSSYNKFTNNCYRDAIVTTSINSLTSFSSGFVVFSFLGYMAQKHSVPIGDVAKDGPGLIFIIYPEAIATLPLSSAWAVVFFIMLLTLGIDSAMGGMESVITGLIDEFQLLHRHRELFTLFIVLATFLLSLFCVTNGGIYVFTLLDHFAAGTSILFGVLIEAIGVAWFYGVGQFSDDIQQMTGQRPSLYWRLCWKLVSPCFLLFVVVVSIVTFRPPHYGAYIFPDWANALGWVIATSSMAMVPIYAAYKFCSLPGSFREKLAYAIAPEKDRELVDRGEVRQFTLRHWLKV
smiles,measurement,setting,value
"CC(N)Cc1c[nH]c2ccc(OCc3cccs3)cc12 (centres unmarked) [BW, 1-[5-(thiophen-2-ylmethoxy)-1H-indol-3-yl]propan-2-amine]",IC50,DAT,741 nM
same,inhibition at 10 µM,DAT; read-out: %Binding inhibition at 10 µM,73.2%
same,inhibition at 10 µM,5-HT5A,54.6%
same,inhibition at 10 µM,5-HT2C [1],97.8%
same,Tmax,[2]; in vivo,~30 min
same,concentration at 4 h,[2]; in vivo,860 ng/g
same,concentration at 8 h,[2]; in vivo,14.4 ng/mL and 417 ng/g
same,half-life,[2]; plasma,66 min
same,pIC50,"Ca^2+ channel, ds; [3H]diltiazem competition",6.11
same,%Binding inhibition at 10 µM,"Ca^2+ channel, ds; dose-response study, maximal concentration 10 µM, [3H]diltiazem",35.80%
same,%Binding inhibition at 10 µM,"Ca^2+ channel, vs",75.5%
same,inhibition at 10 µM,5-HT2B,100%
same,IC50,5-HT2C [3],1320 nM
same,inhibition at 10 µM,"5-HT2C [3]; dose-response study, maximal concentration 10 µM, [3H]mesulergine",91.1%
same,median survival,Sod1^G86R mice; 1 mg/kg/d,107 days
same,median survival,Sod1^G86R mice; 3 mg/kg/d,109 days
same,disease onset,"Sod1^G86R mice; 1 or 3 mg/kg/d, compared to vehicle",unchanged
same,"microglial morphology (proportion of resting, activated, phagocytic, dystrophic Iba1+ cells)",[4]; 3 mg/kg/d vs vehicle,No statistically significant difference
same,loss of motor neurons (ChAT positive cells in the ventral spinal cord),[4]; 3 mg/kg/d,did not modify
same,mitral valve thickness,mitral valve,60.2 µm
